Measured values reported in ChEMBL document CHEMBL5518232, “Discovery of New Tricyclic Oxime Sampangine Derivatives as Potent Antifungal Agents for the Treatment of Cryptococcosis and Candidiasis” (J Med Chem, 2024).
In brackets after ≈: the same amount, converted by molar mass.

Tests used:
[1] = test system: Candida albicans; experiment: Antifungal activity against Candida albicans SC5314 assessed as reduction in fungal growth incubated for 48 hrs by liquid based microdilution method; assay type: functional
[2] = test system: Cryptococcus neoformans; experiment: Antifungal activity against Cryptococcus neoformans H99 assessed as reduction in fungal growth incubated for 72 hrs by liquid based microdilution method; assay type: functional
[3] = test system: Cryptococcus neoformans; experiment: Antifungal activity against Cryptococcus neoformans ATCC 34877 assessed as reduction in fungal growth incubated for 72 hrs by liquid based microdilution method; assay type: functional
[4] = test system: Candida albicans; experiment: Antifungal activity against Candida albicans 0304103 assessed as reduction in fungal growth incubated for 48 hrs by liquid based microdilution method; assay type: functional
[5] = test system: Candida albicans; experiment: Synergistic antifungal activity against Candida albicans 0304103 assessed as fractional inhibitory concentration index by measuring ratio of MIC80 for compound and synergetic / MIC80 for compound alone + MIC80 for fluconazole synergetic / MIC80 for fluconazole alone; assay type: functional
[6] = test system: Nakaseomyces glabratus; experiment: Antifungal activity against Candida glabrata 9073 assessed as reduction in fungal growth incubated for 48 hrs by liquid based microdilution method; assay type: functional
[7] = test system: Candida albicans; experiment: Synergistic antifungal activity against Candida albicans 0304103 assessed as inhibition of fungal growth incubated for 48 hrs in presence of fluconazole by checkerboard microdilution assay; assay type: functional
[8] = test system: Candida tropicalis; experiment: Antifungal activity against Candida tropicalis 10186 assessed as reduction in fungal growth incubated for 48 hrs by liquid based microdilution method; assay type: functional
[9] = Antifungal activity against Cryptococcus gattii VGI ATCC 14116 assessed as reduction in fungal growth incubated for 72 hrs by liquid based microdilution method; assay type: functional
[10] = Effective permeability of the compound across blood brain barrier incubated for 12 hrs by PAMPA assay; assay type: ADME; details: read-out: Peff

Cc1noc2c1C(=O)c1sccc1/C2=N/O
MIC80 [1]: > 64 µg/mL | MIC80 [2]: 0.25 µg/mL (≈ 1.07 µM) | MIC80 [3]: 8 µg/mL (≈ 34.2 µM) | MIC80 [4]: > 64 µg/mL | fractional inhibitory concentration index (FICI) [5]: 0.094 | MIC80 [6]: > 64 µg/mL | MIC80 [7]: 2 µg/mL | MIC80 [8]: > 64 µg/mL | MIC80 [9]: 4 µg/mL (≈ 17.1 µM)

Cc1noc2c1C(=O)c1sccc1C2=O
MIC80 [1]: 0.13 µg/mL (≈ 0.593 µM) | MIC80 [2]: 0.031 µg/mL (≈ 0.141 µM) | MIC80 [4]: 0.5 µg/mL (≈ 2.28 µM) | MIC80 [6]: 1 µg/mL (≈ 4.56 µM) | MIC80 [8]: 2 µg/mL (≈ 9.12 µM) | Papp at 12 h [10]: 7.69 ×10⁻⁶ cm/s

CCc1noc2c1C(=O)c1sccc1/C2=N/OC
MIC80 [1]: > 64 µg/mL | MIC80 [2]: 0.13 µg/mL (≈ 0.496 µM) | MIC80 [3]: 0.13 µg/mL (≈ 0.496 µM) | MIC80 [4]: > 64 µg/mL | fractional inhibitory concentration index (FICI) [5]: 0.047 | MIC80 [6]: > 64 µg/mL | MIC80 [7]: 2 µg/mL | MIC80 [8]: > 64 µg/mL | MIC80 [9]: 4 µg/mL (≈ 15.3 µM)
